The target of series [1] is glutamate cysteine ligase (GCL, EC 6.3.2.2). The settings on record: read-out: Ki (nonallosteric competitive inhibition of GCL); cited from earlier work.
The subject of another series is retinas of diabetic rats. Particulars: cited from earlier work.
The conditions of series [2]: oral dose of 600 mg in humans; cited from earlier work.
Series [3] deals with H2O2-induced cataract in isolated porcine lens. Briefly: H2O2-induced cataract in isolated porcine lens. It is filed as cell-based, pigs. Particulars: for H2O2-induced cataract: 24 hours pre-incubation, then H2O2 plus GO 6 hours. Here is the method: Method: Lenses were harvested from fresh eyes from pigs. These lenses were first incubated in 4-5 mL TC-199 medium and 1% pig serum in a 12-well plate for two hours. At the end of the incubation, lenses were imaged under darkfield microscopy and only clear, transparent lenses were used for further experimentation. Lens were pre-incubated with NAC, NACA, diNACA for 24 hours. After the pretreatment, the lenses were transferred to media containing hydrogen peroxide (H2O2) plus GO for maintaining a constant H2O2 level during incubation similarly to a published method (Wang et al., 1997). At the end of the 6-hour incubation, lenses were imaged under darkfield microscopy (FIG. 3).

Another series relates to rd10 mice. Particulars: cited from earlier work.
For the next series, the system named is isolated rat lens. The experiment in a line: Effect of NACA or diNACA alone on rat lens transparency. The settings on record: 10 mM, no oxidative agent. It is filed as cell-based, Wistar rats. The method, then:
(§1) Lenses were extracted from 3-week-old male or female Wistar rats using an existing Animal Ethics Approval for tissue collection. Rats were euthanized using CO2, eyes were enucleated and lenses dissected from the globe and incubated in either Dulbecco's modified eagle's medium (low glucose; DMEM; Savion et al., 2019) or Media 199, no phenol red with Glutamine, with 1% penicillin, streptomycin, neomycin mixture for 6 hours, under normoxic conditions with 5% CO2. At the end of the 6-hour incubation, lenses were imaged under darkfield and brightfield microscopy and only clear, transparent lenses were used for further experimentation.
(§2) Control group: Lenses were incubated for a further 18 hours at which time, darkfield and brightfield images were taken. Lenses were placed in fresh media and then incubated for another 24 hours in DMEM or M199 with 1% PSN. Images were then taken to assess lens transparency.
(§3) 10 mM diNACA pre-treatment group: After the initial 6-hour incubation, clear lenses were cultured in 10 mM diNACA (NPI-002) for 18 hours. Images were taken, and then lenses were placed in fresh media containing 1 μg/mL of glucose oxidase (GO). Lenses were then incubated for a further 24 hours, after which images were taken to assess lens transparency
(§4) 10 mM NACA pre-treatment group: After the initial 6-hour incubation, clear lenses were cultured in 10 mM NACA (NPI-001) for 18 hours. Images were taken, and then lenses placed in fresh media containing 1 μg/mL of GO. Lenses were then incubated for a further 24 hours, after which images were taken to assess lens transparency

Series [4] concerns GO-induced cataract in isolated rat lens. The experiment in a line: GO-induced cataract in isolated rat lens. It is filed as cell-based, Wistar rats. The settings on record: for lens opacities after GO-cataract induction: 10 mM pre-treatment 18 hours, then 1 μg/mL GO 24 hours, vs GO-cataract induction alone; for visibility of underlying grid after GO-cataract induction: 10 mM pre-treatment, then GO, vs GO group. Here is the method: as §1, §2, §3, §4
Method: Isolated rat lenses were pre-treated with NACA or diNACA followed by GO.

Series [5] can be described thus: Repeated dose topical ocular administration in rabbit: NACA in aqueous humor (LC-MS). It is filed as in vivo, Dutch Belted rabbits. Here is the method: A study was conducted to evaluate effects of diNACA or NACA topical ocular dosing in rabbit. Ophthalmic formulations were developed containing either 1% diNACA or 1% NACA that were used for repeated topical ocular instillation to Dutch Belted rabbits. Three animals per group were dosed four times a day at approximately 8:00 AM, 11:00 AM, 2:00 PM, and 4:00 PM on Days 1-6, and once on Day 7 at approximately 8:00 AM, via bilateral topical administration with each test article. Ocular tolerability was assessed at baseline and prior to the first daily dose by means of scoring chemosis, discharge, and hyperemia (Draize scoring). Ocular tissue was harvested at necropsy (Day 7). A qualified analytical LC-MS method was developed and used to quantitate NACA levels in aqueous humor (AH).

In another series the test system is rabbit. The experiment in a line: NPI-002 IVT implant single dose 3-week safety study in rabbit. It is filed as in vivo, New Zealand White rabbits. The settings on record: resolved by Day 23, associated with 22-gauge needle injection procedure. Here is the method:
A study was conducted to evaluate intravitreal injection of di-NACA as suspension or implant and NACA solution in rabbit. The objectives were to assess safety and whether the implant could deliver diNACA, NACA, and NAC to ocular tissues. A sterile intravitreal implant containing diNACA was prepared (Formulation 1896-08, a fast-releasing implant; FIG. 7). Female New Zealand White rabbits were administered two NPI-002 IVT implants per eye (total dose of NPI-002, 0.8 mg/eye). One group of animals received IVT placebo implants without any test article.
Prior to placement on study, an ophthalmic examination was conducted on each rabbit including slit-lamp biomicroscopy and indirect ophthalmoscopy. Ocular findings were scored according to a modified McDonald-Shadduck Scoring.
Clinical ophthalmic examinations were performed at baseline and on Days 8 and 23 post-dose. General health observations were performed daily. Body weights were recorded at baseline and prior to termination.
Sterile NPI-002 or placebo IVT implants were provided pre-loaded in 22 G beveled needle with wire plunger (1 implant/needle) and injected into VH. NPI-002 suspension and NPI-001 solution were prepared in sterile phosphate buffer and injected into VH.
Animals were euthanized on Day 8, 15, or 23, and ocular tissue was collected and […]

Entries after “also recorded” stand apart in the source; their conditions may differ.

In the case of `N[C@@H](CCC(=O)N[C@@H](CS)C(=O)NCC(=O)O)C(=O)O` [GSH, c-L-glutamyl-L-cysteinyl-glycine], the inhibition constant (Ki) (in general, the dissociation constant of the complex between target and ligand, obtained from inhibition or displacement) in series [1] was 2300 µM.
For `CC(=O)N[C@@H](CS)C(=O)O` [NAC, N-acetylcysteine], the “retinal pathological changes (retinopathy)” value with retinas of diabetic rats (3 and 5 months) was “alleviated the pathological changes”. Further, the “reactive oxygen species contents in the retinas” value with retinas of diabetic rats (most significantly at 5 months) is “decreased reactive oxygen species”. Further, the “VEGF and ICAM-1 expression in retinal blood vessels” value with retinas of diabetic rats (returned to basal levels after 5-month treatment) is “up-regulation was attenuated”. In addition, the “time after administration at which no NAC is detectable” value in series [2] was 10 to 12 h. In series [3], the H2O2-induced cataract entry is given as “dose-dependently prevented H2O2-induced cataract”. Also, the “oxidative damage, cone survival and function” value in the series with rd10 mice (rd10 mice, NAC in drinking water, vs untreated) was “dose-dependent, statistically significant reduction in oxidative damage and improvements in cone survival and function”.
For `CC(=O)N[C@@H](CSSC[C@H](NC(C)=O)C(N)=O)C(N)=O` [diNACA, (2R,2R′)-3,3′-disulfanediyl bis(2-acetamidopropanamide)], the “lens transparency after compound alone” value with isolated rat lens was “remained absolutely clear and transparent; also recorded: tolerated exposure to diNACA better than NACA”; with isolated rat lens (listed as NPI-002), “maintained lens transparency slightly better than NPI-001 (NACA) alone”. Besides, the results for the “lens opacities after GO-cataract induction” value in series [4] and in series [4] (listed as NPI-002) were “reduced lens opacities” and “prevented oxidative-induced cataract”, respectively. Further, in [4], the “visibility of underlying grid after GO-cataract induction” value is on record as “improved grid visibility”. Besides, the “ocular penetration following topical ocular dosing” value in [5] was “penetrates the eye”. In addition, the H2O2-induced cataract entry in series [3] is on record as “dose-dependently prevented H2O2-induced cataract”; in [3] (listed as NPI-002), “prevented oxidative-induced cataract”. In [3] (H2O2-induced cataract), the “protective effects on the lens as compared with NAC, NACA” value was “better protective effects on the lens”. In addition, in the series on rabbit, the “clinical ophthalmic examination findings on Day 8” value is “Mild to moderate conjunctival congestion, swelling and discharge”.
With N-acetylcysteine amide [NACA], the “lens transparency after compound alone” value in the series on isolated rat lens is “developed a subtle thin rim opacity on the edge; also recorded: slight ring opacity developed”. For the same compound, in [4], the “lens opacities after GO-cataract induction” value was “reduced opacities compared to cataract induction alone” and the “visibility of underlying grid after GO-cataract induction” value was “more clearly visible”. For the same compound, in series [3], the H2O2-induced cataract entry is on record as “dose-dependently prevented H2O2-induced cataract”. For the same compound, the visual parameters result in the series on rd10 mice (mouse model of RP) is reported as “improve, to a greater extent than NAC, visual parameters”. Also, in the series with rd10 mice (rd10 mice, 7-fold lower dose than NAC), the “preservation of cone function and survival compared to NAC” value is “greater preservation of cone function and survival”.

The record behind these values is patent US20240008971A1, “Ophthalmic Implant” (Nacuity Pharmaceuticals, Inc., priority 2022, published 2024).
